Experimental data published in US20060241084A1, “Inhibition of vascular endothelial growth factor” (THE HOSPITAL FOR SICK CHILDREN, priority 2002, published 2006).

Key:
[1] = CR-4 dependent inhibition of VEGF secretion from cell lines (VEGF-165 ELISA of medium); assay type: cell-based; conditions: Homo sapiens; all cell lines; 10^6 cells/ml incubated 5 hrs with compound, washed, fresh medium 24 hrs; FIGS. 1 to 4
Procedure: VEGF secretion from the breast cancer cell lines HTB-133 (KDR+), HTB-131 (KDR−) and MDA-231, HTB-181 prostate cancer cell line, HTB-72 melanoma cell line, CR2-1730 human umbilical vascular endothelial (HUV-EC-C) cell line and normal HUVEC primary cells was measured as follows.
Medium was collected and analysed for the presence of VEGF using VEGF-165 ELISA kit (R&D Systems).
CR-4 dependent inhibition of VEGF secretion from breast, prostate, melanoma and HUVEC cell lines.
10^6 cells/ml of each cell lines were incubated for 5 hrs. with various concentrations of CR-4. Cells were washed twice in PBS to remove CR4 and fresh medium was added for 24 hrs. Medium was collected and analysed for the presence of VEGF using VEGF-165 ELISA kit (R&D Systems).

HUVEC = test: Inhibition of HUVEC growth by CR-4 induced VEGF depleted media of breast cancer cell lines ([3H]-Thymidine incorporation); assay type: cell-based, human; conditions: FIG. 5
Procedure: CR-4 dependent inhibition of VEGF secretion results in the inhibition of HUVEC growth.
After an incubation for 5 hrs. with various concentrations of CR-4 the wells were washed twice and fresh HUVEC medium was added for 24 hrs. This medium with or without 10 ng/ml of recombinant VEGF was then transferred to parallel wells containing 10^5 cells/ml of HUVEC that were plated and grown in HUVEC medium for 24 hrs. Radioactive labelled [^3H]-Thymidine was added to HUVEC wells over night. Cells were harvested and their [^3H]-Thymidine incorporation was measured.

[2] = test system: VEGF secretion from HTB-133 and MDA-231 cells; test: CR11 and CR19 dependent inhibition of VEGF secretion from breast cancer cell lines (VEGF-165 ELISA of medium); assay type: cell-based; conditions: Homo sapiens, MDA-MB-231, 10^6 cells/ml incubated 5 hours with compound, washed, fresh medium 24 hours, FIGS. 6 and 7
Procedure: CR11 and CR19 dependent inhibition of VEGF secretion from breast cancer cell lines.
Procedure: 10^6 cells/ml of each of HTB-133 and MDA-231 cells were incubated for 5 hours with various concentrations of CR11 or CR19. Cells were washed twice in PBS to remove CR11 and CR19 and fresh medium was added for 24 hours. Medium was collected and analysed for the presence of VEGF using VEGF-165 ELISA kit (R&D Systems).

## N#C/C(=C\C=C\c1ccc(O)c(O)c1)C(=O)NCc1ccccc1 [CR4, (E,E)-2-(Benzylaminocarbonyl)-3-(3,4-dihydroxystyryl)acrylonitrile]
[1]
  IC50: 10 to 30 nM
HUVEC; 10 ng/ml recombinant VEGF added to the conditioned medium
  Effect of recombinant VEGF on the inhibition of HUVEC growth: rescued by recombinant VEGF
HUVEC; Homo sapiens, medium of HTB-133 (KDR+) and HTB-131 (KDR-) cells treated 5 hrs with compound, transferred to HUVEC, [3H]-Thymidine incorporation
  IC50: 20 to 30 nM

## COc1cc(/C=C/C=C(\C#N)C(=O)NCc2ccc(O)c(O)c2)cc(OC)c1O [CR11, (E,E)-2-(3,4-Dihydroxybenzylaminocarbonyl)-3-(3,5-dimethoxy-4-hydroxystyryl)acrylonitrile]
[2]
  IC50: ~30 nM

## N#C/C(=C\C=C\c1ccccc1)C(=O)NCc1ccc(O)c(O)c1 [CR19, (E,E)-2-(3,4 Dihydroxybenzylaminocarbonyl)-3-styrylacrylonitrile]
[2]
  IC50: ~30 nM
